Laboratory results as given in the supplement of paper PMC11061612.

How the values were obtained:
Test in all cases: combination Emax (second highest fraction inhibited in the dose matrix, 72 h); higher = more inhibition; extreme values may be limits of the assay
[1] = test system: NCI-H1694 (Small Cell Lung Carcinoma)
Method in brief: (§1)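 Bliss excess equals the observed combination effect minus the expected value EA + EB − EA·EB, where EA and EB are the effects of each agent alone. Combination Emax is the second-highest inhibition within the matrix. Inhibition was scaled from CellTiter-Glo 2.0 luminescence, with 0 set by vehicle wells and 1 by blank wells, after 72 hours of two-drug dosing of cells plated in 1536-well plates.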

[2] = test system: J82 (Bladder Carcinoma)
Method in brief: as §1

[3] = test system: SW1783 (Low Grade Glioma)
Method in brief: as §1

[4] = test system: RH-1 (Ewing's Sarcoma)
Method in brief: as §1

[5] = test system: DB (B-Cell Non-Hodgkin's Lymphoma)
Method in brief: as §1

[6] = test system: COR-L23 (Non-Small Cell Lung Carcinoma)
Method in brief: as §1

[7] = test system: DMS-273 (Small Cell Lung Carcinoma)
Method in brief: as §1

[8] = test system: HT-29 (Colorectal Carcinoma)
Method in brief: as §1

[9] = test system: KATOIII (Gastric Carcinoma)
Method in brief: as §1

[10] = test system: NCI-H1793 (Lung Adenocarcinoma)
Method in brief: as §1

[11] = test system: 697 (B-Lymphoblastic Leukemia)
Method in brief: as §1

[12] = test system: ES7 (Ewing's Sarcoma)
Method in brief: as §1

[13] = test system: TE-5 (Esophageal Squamous Cell Carcinoma)
Method in brief: as §1

[14] = test system: JiyoyeP-2003 (Burkitt's Lymphoma)
Method in brief: as §1

[15] = test system: C3A (Hepatocellular Carcinoma)
Method in brief: as §1

[16] = test system: G-292-Clone-A141B1 (Osteosarcoma)
Method in brief: as §1

[17] = test system: LU-99A (Non-Small Cell Lung Carcinoma)
Method in brief: as §1

[18] = test system: NCI-H1781 (Lung Adenocarcinoma)
Method in brief: as §1

[19] = test system: CTV-1 (T-Lymphoblastic Leukemia)
Method in brief: as §1

[20] = test system: EM-2 (Chronic Myelogenous Leukemia)
Method in brief: as §1

In the case of `CC1(C)CCC(CN2CCN(c3ccc(C(=O)NS(=O)(=O)c4ccc(NCC5CCOCC5)c([N+](=O)[O-])c4)c(Oc4cnc5[nH]ccc5c4)c3)CC2)=C(c2ccc(Cl)cc2)C1` [Venetoclax] + COc1cc(Nc2ncc3c(n2)-c2ccc(Cl)cc2C(c2c(F)cccc2OC)=NC3)ccc1C(=O)O [Alisertib] (first compound max 1 µM, 7x7, partner max 10 µM), the “combination Emax” value [1] is reported as 0.667, the “combination Emax” value [2] is reported as 0.351 and the “combination Emax” value [3] is reported as 0.634. For the same molecule, the “combination Emax” value [4] was 1, the “combination Emax” value [5] was 0.949 and the “combination Emax” value [6] was 0.307. For the same molecule, the “combination Emax” value [7] was 0.767, the “combination Emax” value [8] was 0.418 and the “combination Emax” value [9] was 0.681. The “combination Emax” value [10] was 0.612, the “combination Emax” value [11] was 1 and the “combination Emax” value [12] was 0.917. For the same molecule, the “combination Emax” value [13] was 0.137, the “combination Emax” value [14] was 0.852 and the “combination Emax” value [15] was 0.302. For the same molecule, the “combination Emax” value [16] was 0.484, the “combination Emax” value [17] was 0.44 and the “combination Emax” value [18] was 0.665. The “combination Emax” value [19] was 0.976 and the “combination Emax” value [20] was 0.903.

With `CC1(C)CCC(CN2CCN(c3ccc(C(=O)NS(=O)(=O)c4ccc(NCC5CCOCC5)c([N+](=O)[O-])c4)c(Oc4cnc5[nH]ccc5c4)c3)CC2)=C(c2ccc(Cl)cc2)C1` [Venetoclax] + C[C@@H]1COCCN1C2=NC(=NC(=C2)C3(CC3)[S@](=N)(=O)C)C4=C5C=CNC5=NC=C4 [AZD6738] (first compound max 1 µM, 7x7, partner max 10 µM) the “combination Emax” value [1] was 0.822, the “combination Emax” value [2] was 0.483 and the “combination Emax” value [3] was 0.503. The “combination Emax” value [4] was 0.959, the “combination Emax” value [5] was 0.983 and the “combination Emax” value [6] was 0.585. For the same molecule, the “combination Emax” value [7] was 0.809, the “combination Emax” value [8] was 0.865 and the “combination Emax” value [9] was 0.462. For the same molecule, the “combination Emax” value [10] was 0.508, the “combination Emax” value [11] was 1 and the “combination Emax” value [12] was 0.941. The “combination Emax” value [13] was 0.593, the “combination Emax” value [14] was 0.954 and the “combination Emax” value [15] was 0.452. The “combination Emax” value [16] was 0.344, the “combination Emax” value [17] was 0.619 and the “combination Emax” value [18] was 0.451. For the same molecule, the “combination Emax” value [19] was 0.924 and the “combination Emax” value [20] was 0.943.

With `CC1(C)CCC(CN2CCN(c3ccc(C(=O)NS(=O)(=O)c4ccc(NCC5CCOCC5)c([N+](=O)[O-])c4)c(Oc4cnc5[nH]ccc5c4)c3)CC2)=C(c2ccc(Cl)cc2)C1` [Venetoclax] + C[C@@H](Nc1cc(F)cc(F)c1)c1cc(C(=O)N(C)C)cc2c(=O)cc(N3CCOCC3)oc12 [AZD8186] (first compound max 1 µM, 7x7, partner max 3 µM) the “combination Emax” value [1] was 0.376, the “combination Emax” value [2] was 0.14 and the “combination Emax” value [3] was 0.336. For the same molecule, the “combination Emax” value [4] was 0.0877, the “combination Emax” value [5] was 0.943 and the “combination Emax” value [6] was 0.054. For the same molecule, the “combination Emax” value [7] was 0.482, the “combination Emax” value [8] was 0.132 and the “combination Emax” value [9] was 0.142. For the same molecule, the “combination Emax” value [10] was 0.221, the “combination Emax” value [11] was 0.986 and the “combination Emax” value [12] was 0.904. The “combination Emax” value [13] was 0.375, the “combination Emax” value [14] was 0.527 and the “combination Emax” value [15] was 0.296. For the same molecule, the “combination Emax” value [16] was 0.296, the “combination Emax” value [17] was 0.234 and the “combination Emax” value [18] was 0.28. The “combination Emax” value [19] was 0.372 and the “combination Emax” value [20] was 0.256.

In the case of `CC1(C)CCC(CN2CCN(c3ccc(C(=O)NS(=O)(=O)c4ccc(NCC5CCOCC5)c([N+](=O)[O-])c4)c(Oc4cnc5[nH]ccc5c4)c3)CC2)=C(c2ccc(Cl)cc2)C1` [Venetoclax] + Cc1cc2ncnn2cc1Nc1ncc2c(n1)n(C1CCOCC1)c(=O)n2C [AZD7648] (first compound max 1 µM, 7x7, partner max 10 µM), the “combination Emax” value [1] is reported as 0.223, the “combination Emax” value [2] is reported as 0.131 and the “combination Emax” value [3] is reported as 0.237. For the same molecule, the “combination Emax” value [4] was 0.242, the “combination Emax” value [5] was 0.957 and the “combination Emax” value [6] was 0.164. The “combination Emax” value [7] was 0.482, the “combination Emax” value [8] was 0.205 and the “combination Emax” value [9] was 0.214. The “combination Emax” value [10] was 0.41, the “combination Emax” value [11] was 0.983 and the “combination Emax” value [12] was 0.714. The “combination Emax” value [13] was 0.284, the “combination Emax” value [14] was 0.317 and the “combination Emax” value [15] was 0.212. The “combination Emax” value [16] was 0.221, the “combination Emax” value [17] was 0.404 and the “combination Emax” value [18] was 0.329. For the same molecule, the “combination Emax” value [19] was 0.362 and the “combination Emax” value [20] was 0.254.

With `CC1(C)CCC(CN2CCN(c3ccc(C(=O)NS(=O)(=O)c4ccc(NCC5CCOCC5)c([N+](=O)[O-])c4)c(Oc4cnc5[nH]ccc5c4)c3)CC2)=C(c2ccc(Cl)cc2)C1` [Venetoclax] + Cn1cnc2c(F)c(Nc3ccc(Br)cc3Cl)c(C(=O)NOCCO)cc21 [Selumetinib] (first compound max 1 µM, 7x7, partner max 3 µM) the “combination Emax” value [1] was 0.324, the “combination Emax” value [2] was 0.122 and the “combination Emax” value [3] was 0.124. For the same molecule, the “combination Emax” value [4] was 0.0877, the “combination Emax” value [5] was 0.914 and the “combination Emax” value [6] was 0.2. The “combination Emax” value [7] was 0.214, the “combination Emax” value [8] was 0.64 and the “combination Emax” value [9] was 0.186. The “combination Emax” value [10] was 0.199, the “combination Emax” value [11] was 1 and the “combination Emax” value [12] was 0.7. For the same molecule, the “combination Emax” value [13] was 0.107, the “combination Emax” value [14] was 0.304 and the “combination Emax” value [15] was 0.434. The “combination Emax” value [16] was 0.146, the “combination Emax” value [17] was 0.324 and the “combination Emax” value [18] was 0.166. For the same molecule, the “combination Emax” value [19] was 0.293 and the “combination Emax” value [20] was 0.424.
